Laboratory results reported in patent US9790253B2, “OSW-1 analogs and conjugates, and uses thereof” (priority 2011, dated 2017).
Residue numbers refer to the chain shown, from its start. Entries after “also recorded” stand apart in the source; their conditions may differ.

What was measured:
[1] = target: T1, OSBP1 protein levels in HCT-116 cells (Homo sapiens, UniProt P22059); test: OSBP1 protein levels by western blotting; format: cell-based; conditions: for reduction in OSBP1 protein levels: 24 h
T1 construct: endogenous in cells; host or cells: HCT-116
T1 sequence (P22059 1-807): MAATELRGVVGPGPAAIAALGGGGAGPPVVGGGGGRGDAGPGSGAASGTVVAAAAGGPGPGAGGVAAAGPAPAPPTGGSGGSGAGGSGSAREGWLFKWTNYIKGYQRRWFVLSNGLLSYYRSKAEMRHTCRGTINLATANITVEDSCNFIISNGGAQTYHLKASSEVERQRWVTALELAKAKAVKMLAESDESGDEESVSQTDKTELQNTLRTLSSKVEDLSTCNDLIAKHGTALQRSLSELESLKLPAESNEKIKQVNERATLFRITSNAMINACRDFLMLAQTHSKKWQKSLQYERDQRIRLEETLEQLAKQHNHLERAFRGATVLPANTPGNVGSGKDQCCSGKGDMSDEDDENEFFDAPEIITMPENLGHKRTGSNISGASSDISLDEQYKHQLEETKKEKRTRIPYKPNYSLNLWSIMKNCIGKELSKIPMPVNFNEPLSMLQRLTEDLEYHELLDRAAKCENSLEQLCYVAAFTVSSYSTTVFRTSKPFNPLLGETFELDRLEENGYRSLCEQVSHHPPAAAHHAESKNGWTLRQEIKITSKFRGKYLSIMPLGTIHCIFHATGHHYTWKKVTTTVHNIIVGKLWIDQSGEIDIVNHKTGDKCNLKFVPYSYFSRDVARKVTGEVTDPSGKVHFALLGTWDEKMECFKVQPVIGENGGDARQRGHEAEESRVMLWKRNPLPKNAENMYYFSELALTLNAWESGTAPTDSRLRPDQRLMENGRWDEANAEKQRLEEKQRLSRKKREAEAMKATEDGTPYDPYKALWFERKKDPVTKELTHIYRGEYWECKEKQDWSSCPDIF
Procedure: A possible explanation for this observation was that treatment with 1 and 2 caused a decrease in OSBP1 levels. Treatment of HCT-116 cells with vehicle (DMSO) or 25-OHC (10 μM) had no effect on OSBP1 levels, as assessed by western blotting (FIG. 6A). However, treatment with 1 or 2 induced a dramatic, time-dependent reduction of OSBP1 levels (FIG. 6A). For example, 50 nM of 1 or 10 nM of 2 caused an approximately 75% reduction in OSBP1 protein levels at 24 h in HCT-116 cells (FIG. 6A), with a similar effect recorded in A549 cells. […] OSBP1 levels were determined using both an antibody recognizing the far N-terminus of OSBP1 (FIG. 6) and also an antibody recognizing the C-terminus of OSBP1.
One possible explanation for the reduction in OSBP1 levels upon treatment with 1 and 2 was proteasome-dependent degradation. To determine whether degradation of OSBP1 was proteasome dependent, proteasome inhibitors MG-132 or lactacystin were co-administered with 1 and 2. […] Similar results were obtained in A549 cells.

[2] = test system: HeLa cells overexpressing OSBP1(V582M); test: Overexpression-viability assay, OSBP1(V582M)-myc-his; format: cell-based; conditions: 48 h
Procedure: Overexpression-viability assays with wild-type and mutant OSBP/ORP4L constructs were carried out by transfecting HeLa cells with the appropriate plasmids using Lipofectamine™ LTX with PLUS™ reagent (Invitrogen) as instructed, and after 8 h of transfection, the cells were re-plated for the cell viability assay, performed as described above. Expression levels were evaluated by immunoblotting at the time of dosing.
For additional support that OSBP1 and ORP4L are targets of the ORPphilins, dominant drug-resistant alleles of these proteins were sought. 15 OSBP1 residues inside and outside the region of the protein previously reported to mediate sterol binding were mutated (FIG. 4C). The growth inhibition induced by the ORPphilins was determined in HeLa cells overexpressing either wild-type or mutant OSBP1-myc-his proteins. Expression of wt OSBP1-myc-his and mutant OSBP1-myc-his were nearly equivalent as measured by western blot.
The same mutant caused a 3.9-fold reduction in the antiproliferative activity of OSW-1 (2) (FIG. 4E2) and a 2.7-fold reduction in the activity of schweinfurthin A (4a) (FIG. 4E3). […] The antiproliferative activity of taxol was unaffected by expression of these two OSBP1 mutant proteins (FIGS. 4E4, 4E8).

OSBP1(V582M) = target: T2, OSBP1(V582M) (Homo sapiens, UniProt P22059, V582M); test: [3H]-25-OHC binding, OSBP1(V582M) mutant; conditions: for binding affinity for OSBP1(V582M) compared to wt OSBP1-myc-his: [3H]-25-OHC competition binding
T2 construct: made in house; host or cells: HEK-293T (transient transfection; S100 lysate, not purified)
T2 sequence (P22059 1-807 V582M): T1 sequence (P22059 1-807) with V582M
Procedure: [^3H]-25-Hydroxycholesterol charcoal-dextran binding assay.
The binding affinity of 1, 2 and 4a to the OSBP1(M446W) and OSBP1(V582M) mutants were then determined using [^3H]-25-OHC competition binding. […] Within error limits, the binding affinity of 1, 2 and 4a for these two OSBP1 mutants were unchanged compared to wt OSBP1-myc-his (FIG. 4D).

Row | Compound | reduction in OSBP1 protein levels ([1]; 10 nM) | reduction in antiproliferative activity, OSBP1(V582M) vs wt OSBP1 [2] | binding affinity for OSBP1(V582M) compared to wt OSBP1-myc-his (OSBP1(V582M)) | reduction in OSBP1 protein levels ([1]; 50 nM) | effect on OSBP1 levels ([1]; 10 μM) | suppression of OSBP1 level reduction caused by 2 ([1]; 25-OHC (10 M or 20 M) with 2 (1 nM)) | 25-OHC KD of OSBP1(V582M) compared to wt (OSBP1(V582M)) | suppression of OSBP1 level reduction caused by 2 ([1]; 5 μM with 10 nM of 2) | effect on OSBP1 levels, compound alone ([1]; concentration not given)
1 | COc1ccc(C(=O)O[C@H]2[C@H](O[C@@H]3[C@@H](OC(C)=O)[C@H](O[C@H]4C[C@H]5[C@@H]6CC=C7C[C@@H](O)CC[C@]7(C)[C@H]6CC[C@]5(C)[C@@]4(O)[C@H](C)C(=O)CCC(C)C)OC[C@@H]3O)OC[C@@H](O)[C@@H]2O)cc1 [OSW-1] | approximately 75% | did not affect | unchanged | – | – | – | – | – | –
2 | C[C@@H]1[C@]2(O[C@H]3C=C4[C@@H]5CC[C@H]6Cc7nc8c(nc7C[C@]6(C)[C@H]5C[C@@H](O)[C@]4(C)[C@]31O)C[C@@H]1CC[C@H]3C4=CC[C@@H]5[C@H](C)[C@@]6(OC[C@]45C(=O)C[C@@H]3[C@@]1(C)C8)OC(C)(C)C[C@H]6O)O[C@](C)(CO)C[C@H]2O [cephalostatin 1, Cephalostatin 1] | – | 9.4 fold | unchanged | approximately 75% | – | – | – | – | –
3 | C[C@H](CCCC(C)(C)O)[C@H]1CC[C@H]2[C@@H]3CC=C4C[C@@H](O)CC[C@]4(C)[C@H]3CC[C@]12C [Compound 25-OHC, 25-hydroxycholesterol] | – | – | – | – | no effect; also recorded: did not reduce | significantly suppressed | slightly higher | – | –
4 | schweinfurthin A | – | did not affect | unchanged | – | – | – | – | completely suppressed | no effect
